According to the NIST ThermoML archive (doi:10.1021/je034228o):
± gives the expanded uncertainty stated by the source.

Conditions: Crystal; DTA

| Normal melting temperature | Structure (SMILES) |
| --- | --- |
| 51.1 ± 0.5 °C | CC(C)Cc1ccc([C@H](C)C(=O)O)cc1 [(S)-2-(4-isobutylphenyl)propanoic acid] |
| 76.1 ± 0.5 °C | CC(C)Cc1ccc(C(C)C(=O)O)cc1 (configuration not stated) [ibuprofen] |
